This passage reports IC50 results from patent US20090163490A1, “Pyrrolopyrimidine Derivatives Used As HSP90 Inhibitors” (VERNALIS (R&D) LTD., priority 2006, published 2009).

Some results are limits rather than exact numbers.

T1 sequence (P08238 whole entry): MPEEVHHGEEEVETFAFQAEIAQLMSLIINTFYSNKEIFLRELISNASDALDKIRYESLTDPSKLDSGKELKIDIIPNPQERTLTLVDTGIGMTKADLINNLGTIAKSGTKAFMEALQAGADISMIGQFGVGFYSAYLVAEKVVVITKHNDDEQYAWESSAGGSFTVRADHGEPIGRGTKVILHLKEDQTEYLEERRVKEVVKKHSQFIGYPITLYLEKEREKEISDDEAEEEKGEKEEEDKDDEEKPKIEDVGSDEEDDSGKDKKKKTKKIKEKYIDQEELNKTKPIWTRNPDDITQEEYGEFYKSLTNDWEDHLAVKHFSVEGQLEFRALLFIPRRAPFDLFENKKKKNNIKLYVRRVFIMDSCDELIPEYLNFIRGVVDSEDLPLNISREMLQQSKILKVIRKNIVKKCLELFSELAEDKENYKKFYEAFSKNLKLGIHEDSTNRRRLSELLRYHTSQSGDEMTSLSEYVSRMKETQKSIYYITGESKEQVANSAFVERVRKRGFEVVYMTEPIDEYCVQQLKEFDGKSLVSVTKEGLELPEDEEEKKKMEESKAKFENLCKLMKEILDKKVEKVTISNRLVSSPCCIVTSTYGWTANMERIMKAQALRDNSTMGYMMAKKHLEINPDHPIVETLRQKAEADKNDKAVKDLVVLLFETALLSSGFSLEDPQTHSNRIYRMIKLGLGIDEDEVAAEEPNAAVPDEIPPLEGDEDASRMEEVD

One test addresses T1, human full-length HSP90 (Homo sapiens, UniProt P08238).
T1 construct: E. coli expressed human full-length HSP90 protein, purified >95%; made in house; host or cells: E. coli
Briefly: Fluorescence polarization (FP) binding assay. Conditions: competitive displacement of fluorescein-labelled probe from human full-length HSP90; activity range; read-out: ACTIVITY* (Activity in the FP binding assay). An excerpt: Fluorescence Polarization Assay
Fluorescence polarization {also known as fluorescence anisotropy} measures the rotation of a fluorescing species in solution, where the larger molecule the more polarized the fluorescence emission. When the fluorophore is excited with polarized light, the emitted light is also polarized. The molecular size is proportional to the polarization of the fluorescence emission.
The fluoroscein-labelled probe—
binds to HSP90 {full-length human, full-length yeast or N-terminal domain HSP90} and the anisotropy {rotation of the probe:protein complex} is measured.
Test compound is added to the assay plate, left to equilibrate and the anisotropy measured again. Any change in anisotropy is due to competitive binding of compound to HSP90, thereby releasing probe.
Stored at room temperature. • 3) BSA (bovine serum albumen) 10 mg/ml (New England Biolabs # B9001S) • 4) 20 mM probe in 100% DMSO stock concentration. Stored in the dark at RT. Working concentration is 200 nM diluted in AR water and stored at 4° C.
• 1) Add 100 μl×buffer to wells 1A and 12A(=FP BLNK) • 2) Prepare assay mix—all reagents are kept on ice with a lid on the bucket as the probe is light-sensitive.
• 3) Aliquot 100 μl assay mix to all other wells • 4) Seal plate and leave in dark at room temp for 20 minutes to equilibrate
This gives 2.5 mM {50×} stock cpd−assuming cpds 20 mM. • 4) Repeat for wells A2 to A10. Control in columns 11 and 12. • 5) Transfer 5 μl from row A to row B—not column 12. Mix well. • 6) Transfer 5 μl from row B to row C. […] Add 2 μl of 100 mM standard cpd to wells B12-H12 {is positive control} • 13) The Z′ factor is calculated from zero controls and positive wells.
In general terms: In fluorescence polarisation assays a small probe gives low polarisation when free and higher when bound to something large.
As to `COc1cc(Cl)c(-c2nc(OCCCN3CCOCC3)nc3[nH]cc(C#N)c23)cc1OC` [Example 60], the IC50 was below 0.5 µM.
The same measure, in the same setting: to `COc1cc(Cl)c(-c2nc(SC(C)(C)CN3CCC(F)(F)C3)nc3[nH]cc(C#N)c23)cc1OC` [Example 90] belongs below 0.5 µM.
Still for that read-out and setting: for `COc1cc(Cl)c(-c2nc(Cc3ccccc3)nc3[nH]cc(C#N)c23)cc1OC` [Example 87] the value was below 0.5 µM; for `CCN(CC)CCCOc1nc(-c2cc(OC)c(OC)cc2Cl)c2c(C#N)c[nH]c2n1` [Example 59], below 0.5 µM; for `COc1cc(Cl)c(-c2nc(SC)nc3[nH]cc(C#N)c23)cc1OCCN1CCC(F)(F)CC1` [Example 64], below 0.5 µM.
In the case of `CCN(CC)CCOc1cc(-c2nc(OC(C)C)nc3[nH]cc(C#N)c23)c(Cl)cc1OC` [Example 79], the IC50 is below 0.5 µM.
As to `CCN(CC)CCOc1nc(-c2ccc(OC)c(OC)c2)c2c(C#N)c[nH]c2n1` [Example 53], the IC50 is 0.5 to 10 µM.
Same read-out and setting: to `CSc1nc(-c2cc(OCc3ccccc3)c(Cl)cc2Cl)c2c(C#N)c[nH]c2n1` [Example 54] belongs 0.5 to 10 µM.
On to `COc1cc(Cl)c(-c2nc(SC)nc3[nH]cc(C#N)c23)cc1OCCN1CCCC(F)(F)C1` [Example 66], for which the IC50 is below 0.5 µM.
Take `COc1cc(Cl)c(-c2nc(OCCN3CCC(F)CC3)nc3[nH]cc(C#N)c23)cc1OC` [Example 71]: the IC50 is below 0.5 µM.
Regarding `COc1cc(Cl)c(-c2nc(Oc3ccccc3)nc3[nH]cc(C#N)c23)cc1OC` [Example 86], the IC50 was below 0.5 µM.
The same measure, in the same setting: to `COc1cc(Cl)c(-c2nc(Sc3nccn3C)nc3[nH]cc(C#N)c23)cc1OC` [Example 91] belongs 0.5 to 10 µM.
Regarding `CCN(CC)CCOc1cc(-c2nc(Sc3nccs3)nc3[nH]cc(C#N)c23)c(Cl)cc1OC` [Example 92], the IC50 is below 0.5 µM.
Turning to `CCN(CC)CCNc1nc(-c2cc(OC)c(OC)cc2Cl)c2c(C#N)c[nH]c2n1` [Example 69], the IC50 is 0.5 to 10 µM.
Take `COc1cc(Cl)c(-c2nc(SC)nc3[nH]cc(C#N)c23)cc1OCCN1CCC(F)(F)C1` [Example 74]: the IC50 is below 0.5 µM.
The same measure, in the same setting: for `COc1cc(Cl)c(-c2nc(SC(C)(C)C)nc3[nH]cc(C#N)c23)cc1OCCN1CC[C@@H](F)C1` [Example 78] the value was below 0.5 µM; for `COc1cc(Cl)c(-c2nc(SC(C)C)nc3[nH]cc(C#N)c23)cc1OCCN1CCC(F)(F)CC1` [Example 76], below 0.5 µM.
Still for that read-out and setting: for `CCN(CC)CCOc1cc(-c2nc(OC3CCCC3)nc3[nH]cc(C#N)c23)c(Cl)cc1OC` [Example 80] the value was below 0.5 µM; for `COc1cc(Cl)c(-c2nc(OCCN3CCOCC3)nc3[nH]cc(C#N)c23)cc1OC` [Example 61], below 0.5 µM; for `COc1cc(-c2nc(SC)nc3[nH]cc(C#N)c23)ccc1C#N` [Example 55], 0.5 to 10 µM.

Still in this test, the particulars now being: competitive displacement of fluorescein-labelled probe from human full-length HSP90; activity range; read-out: activity in the fluorescence polarization assay.
`CSc1nc(-c2ccc3c(c2)OCCO3)c2c(C#N)c[nH]c2n1` [Example 43, 4-(2,3-Dihydro-benzo[1,4]dioxin-6-yl)-2-methylsulfanyl-7H-pyrrolo[2,3-d]pyrimidine-5-carbonitrile]: the IC50 was above 10 µM.
Still for that read-out and setting: to `CCN(CC)CCSc1nc(-c2cc(OC)c(C#N)cc2Cl)c2c(C#N)c[nH]c2n1` [Example 37, 4-(2-Chloro-4-cyano-5-methoxy-phenyl)-2-(2-diethylamino-ethylsulfanyl)-7H-pyrrolo[2,3-d]pyrimidine-5-carbonitrile] belongs below 0.5 µM; to `CNC(=O)CSc1nc(-c2ccc(F)cc2C)c2c(C#N)c[nH]c2n1` [Example 38, 2-[5-Cyano-4-(4-fluoro-2-methyl-phenyl)-7H-pyrrolo[2,3-d]pyrimidin-2-ylsulfanyl]-N-methyl-acetamide], below 0.5 µM; to `CSc1nc(-c2ccc(C)cc2C)c2c(C3CC3)c[nH]c2n1` [Example 11, 5-Cyclopropyl-4-(2,4-dimethyl-phenyl)-2-methylsulfanyl-7H-pyrrolo[2,3-d]pyrimidine], above 10 µM.
Same read-out and setting: for `COc1cc(-c2nc(SC)nc3[nH]cc(C#N)c23)c(Cl)cc1C#N` [Example 42, 4-(2-Chloro-4-cyano-5-methoxy)-2-methylsulfanyl-7H-pyrrolo[2,3-d]pyrimidine-5-carbonitrile] the value was below 0.5 µM; for `COc1cc(Cl)c(-c2nc(SC)nc3[nH]cc(C#N)c23)cc1OC` [Example 29, 4-(2-Chloro-4,5-dimethoxy-phenyl)-2-methylsulfanyl-7H-pyrrolo[2,3-d]pyrimidine-5-carbonitrile], below 0.5 µM.
Same read-out and setting: for `CSc1nc(-c2ccc(F)cc2C)c2c(C(N)=O)c[nH]c2n1` [Example 40, 4-(4-Fluoro-2-methyl-phenyl)-2-methylsulfanyl-7H-pyrrolo[2,3-d]pyrimidine-5-carboxylic Acid Amide] the value was above 10 µM.
In the case of `COc1ccc(-c2nc(OCCN3CC[C@H](F)C3)nc3[nH]cc(C#N)c23)cc1OC` [Example 34, 4-(3,4-Dimethoxy-phenyl)-2-[2-(3(S)-fluoro-pyrrolidin-1-yl)-ethoxy]-7H-pyrrolo[2,3-d]pyrimidine-5-carbonitrile], the IC50 lay within 0.5 to 10 µM.
On the same count and under the same terms, to `Cc1cc(F)ccc1-c1nc(SCCN2CCOCC2)nc2[nH]cc(C#N)c12` [Example 21, 4-(4-Fluoro-2-methyl-phenyl)-2-(2-morpholin-4-yl-ethylsulfanyl)-7H-pyrrolo[2,3-d]pyrimidine-5-carbonitrile] belongs below 0.5 µM; to `Cc1cc(F)ccc1-c1nc(N2CCN(C)CC2)nc2[nH]cc(C#N)c12` [Example 16, 4-(4-Fluoro-2-methyl-phenyl)-2-(4-methyl-piperazin-1-yl)-7H-pyrrolo[2,3-d]pyrimidine-5-carbonitrile], above 10 µM; to `CSc1nc(-c2ccc(C)cc2C)c2c(C(F)(F)F)c[nH]c2n1` [Example 10, 4-(2,4-Dimethyl-phenyl)-2-methylsulfanyl-5-trifluoromethyl-7H-pyrrolo[2,3-d]pyrimidine], 0.5 to 10 µM.
On the same count and under the same terms, to `COc1cc(Cl)c(-c2nc(SCC(=O)O)nc3[nH]cc(C#N)c23)cc1OCCN1CCC(F)(F)C1` [Example 50, (4-{2-Chloro-5-[2-(3,3-difluoro-pyrrolidin-1-yl)-ethoxy]-4-methoxy-phenyl}-5-cyano-7H-pyrrolo[2,3-d]pyrimidin-2-ylsulfanyl)-acetic Acid] belongs below 0.5 µM.
On the same count and under the same terms, to `COc1cc(Cl)c(-c2nc(OCCN3CCC(F)(F)C3)nc3[nH]cc(C#N)c23)cc1OC` [Example 36] belongs below 0.5 µM; to `COc1cc(-c2nc(SC)nc3[nH]cc(C#N)c23)c(Cl)cc1Cl` [Example 22, 4-(2,4-Dichloro-5-methoxy-phenyl)-2-methylsulfanyl-7H-pyrrolo[2,3-d]pyrimidine-5-carbonitrile], below 0.5 µM; to `CSc1nc(C(=O)N2Cc3ccccc3C2)c2c(C#N)c[nH]c2n1` [Example 93, 4-(1,3-Dihydro-isoindole-2-carbonyl)-2-methylsulfanyl-7H-pyrrolo[2,3-d]pyrimidine-5-carbonitrile], 0.5 to 10 µM.
On to `COc1cc(Cl)c(-c2nc(OCCN3CC[C@H](F)C3)nc3[nH]cc(C#N)c23)cc1OC` [Example 35], for which the IC50 was below 0.5 µM.
Consider `COc1cc(-c2nc(OCCN3CCCC3=O)nc3[nH]cc(C#N)c23)c(Cl)cc1Cl` [Example 25, 4-(2,4-Dichloro-5-methoxy-phenyl)-2-[2-(2-oxo-pyrrolidin-1-yl)-ethoxy]-7H-pyrrolo[2,3-d]pyrimidine-5-carbonitrile], for which the IC50 is below 0.5 µM.
